Data as given in US4002690A (priority 1974, dated 1977).
Where a name gives a salt, the structure may show the parent alone.

Columns and labels:
[1] = Antiviral activity in vivo (statement only); conditions: no test details given
[2] = system: Newcastle disease virus (NDV); experiment: microbe, parasite or virus in culture; assay type: cell-based, Newcastle disease virus (host: chick embryo); conditions: for inhibition at 39 µg/mL / inhibition at 78 µg/mL / inhibition at 156 µg/mL: avian paramyxovirus 1, in Gallus gallus, 48 h, read-out: % Inhibition of NDV Multiplications

| Compound | antiviral activity in vivo [1] | antiviral activity compared with Amantadine hydrochloride ([2]; NDV, in vitro, chick embryo monolayer tissue culture) | inhibition at 39 µg/mL [2] | inhibition at 78 µg/mL [2] | inhibition at 156 µg/mL [2] | virus replication in the tissue culture ([2]; containing above 39 μg/ml of carbinol (II)) |
| --- | --- | --- | --- | --- | --- | --- |
| OCC12CCCC3CC(CCC31)C2 (stereo not drawn) [II] | potent antiviral activity in vivo | extremely superior to that of Amantadine hydrochloride | 0% | 91.2% | 99.8% | almost completely inhibited |
| NC12CC3CC(CC(C3)C1)C2 [Amantadine.HCl, reference compound] | – | – | 0% | 0% | 0% | – |
